The OligoGym collection
Values joined by “and” are separate entries in the source; they are usually repeats but may differ in a detail not shown here. Equal values may be shown once. After the bases stand the sugars from the 5' end (letter, count) and the backbone: PS all phosphorothioate, else s phosphorothioate and o phosphodiester by linkage. Methylation of C is not given here. e = 2'-O-(2-methoxyethyl) (MOE); k = constrained ethyl (cEt); d = 2'-deoxy (DNA)

Molecular target: SOD1
Details: ASO

With “CAAGTGATCATAAATCA (sugars e2 k2 d9 k2 e2, PS)” the target mRNA inhibition (HepG2, 5 µM) was 29%.
Sequence “TGGATTCTTTTAATAGCCTC (sugars e5 d10 e5, PS)” has a target mRNA inhibition (HepG2, 5 µM) of 13%.
Work on “CCATTACTTTCCTTCTG (sugars e3 k2 d7 k2 e3, PS)” yielded a target mRNA inhibition (HepG2, 3 µM) of 37%.
For “TACATTTCTACAGCTA (sugars ekddddddddekekee, linkages s1 o1 s8 o3 s2)”, the target mRNA inhibition (A431, 0.12 µM) was 37%, the target mRNA inhibition (A431, 0.6 µM) was 0% and the target mRNA inhibition (A431, 3 µM) was 22%. The target mRNA inhibition (A431, 15 µM) was 12%, the target mRNA inhibition (HepG2, 0.222 µM) was 36% and the target mRNA inhibition (HepG2, 0.667 µM) was 69%. The target mRNA inhibition (HepG2, 2 µM) was 83% and the target mRNA inhibition (HepG2, 6 µM) was 95%.
“AATTACACCACAAGCCA (sugars e2 k2 d8 k2 e3, PS)” was tested, and the target mRNA inhibition (HepG2, 4 µM) was 62%.
Work on “CCATCTGTGATTTAAGT (sugars e2 k2 d8 k2 e3, PS)” yielded a target mRNA inhibition (HepG2, 5 µM) of 46%.
Sequence “TTTCCTTCTGCTCGAAA (sugars e3 k2 d7 k2 e3, PS)” has a target mRNA inhibition (HepG2, 3 µM) of 6%.
With “CCCACCGTGTTTTCTGGATA (sugars e5 d10 e5, PS)” the target mRNA inhibition (HepG2, 5 µM) was 46% and 40%.
With “ATACAGGTCATTGAAAC (sugars e2 k2 d9 k2 e2, PS)” the target mRNA inhibition (HepG2, 5 µM) was 22%.
Sequence “AGTTTAATACCCATCTG (sugars e3 k2 d7 k2 e3, PS)” has a target mRNA inhibition (HepG2, 3 µM) of 10%.
“TGTGATTTAAGTCTGGCAAA (sugars e5 d10 e5, PS)” gave a target mRNA inhibition (HepG2, 5 µM) of 34%.
In the case of “CTGCTTTTTCATGGACC (sugars e3 k2 d7 k2 e3, PS)”, the target mRNA inhibition (HepG2, 3 µM) is reported as 65%.
Sequence “GTGTTTAATGTTTATC (sugars kekeddddddddekek, linkages s1 o3 s8 o1 s2)” has a target mRNA inhibition (A431, 0.12 µM) of 7%, a target mRNA inhibition (A431, 0.6 µM) of 35% and a target mRNA inhibition (A431, 3 µM) of 66%. It also gave a target mRNA inhibition (A431, 15 µM) of 78%, a target mRNA inhibition (HepG2, 0.222 µM) of 53% and a target mRNA inhibition (HepG2, 0.667 µM) of 78%. For the same sequence, the target mRNA inhibition (HepG2, 2 µM) was 82% and the target mRNA inhibition (HepG2, 6 µM) was 90%.
Sequence “CCCACTCTGGCCCCAAA (sugars e3 k2 d7 k2 e3, PS)” has a target mRNA inhibition (HepG2, 3 µM) of 15%.
In the case of “TTACACCACAAGCCAAA (sugars e2 k2 d9 k2 e2, PS)”, the target mRNA inhibition (HepG2, 4 µM) is reported as 63%.
Work on “TCTACAGCTAGCAGGAT (sugars e2 k2 d8 k2 e3, PS)” yielded a target mRNA inhibition (HepG2, 0.1875 µM) of 23%, a target mRNA inhibition (HepG2, 0.75 µM) of 51% and a target mRNA inhibition (HepG2, 3 µM) of 74%. For the same sequence, the target mRNA inhibition (HepG2, 4 µM) was 75% and the target mRNA inhibition (HepG2, 12 µM) was 91%.
For “TTCACAGGCTTGAATGA (sugars e2 k2 d8 k2 e3, PS)”, the target mRNA inhibition (HepG2, 5 µM) was 20%.
In the case of “TTTTATTCACAGGCTTG (sugars e2 k2 d9 k2 e2, PS)”, the target mRNA inhibition (HepG2, 5 µM) is reported as 48%.
For “TGTTTATTGGGCGATCC (sugars e3 k2 d7 k2 e3, PS)”, the target mRNA inhibition (HepG2, 3 µM) was 21%.
In the case of “CCAAGTGATCATAAATCAGT (sugars e5 d10 e5, PS)”, the target mRNA inhibition (HepG2, 5 µM) is reported as 39%.
Work on “AAAGTGAGGACCTGCAC (sugars e3 k2 d7 k2 e3, PS)” yielded a target mRNA inhibition (HepG2, 3 µM) of 20%.
Sequence “GCCCACTCTGGCCCCAA (sugars e3 k2 d7 k2 e3, PS)” has a target mRNA inhibition (HepG2, 3 µM) of 22%.
“CTACAGCTAGCAGGATA (sugars e3 k2 d7 k2 e3, PS)” was tested, and the target mRNA inhibition (HepG2, 0.1875 µM) was 44%, the target mRNA inhibition (HepG2, 0.75 µM) was 62% and the target mRNA inhibition (HepG2, 3 µM) was 55% and 80%. It also gave a target mRNA inhibition (HepG2, 12 µM) of 86%.
For “GATCCCAATTACACCAC (sugars e2 k2 d9 k2 e2, PS)”, the target mRNA inhibition (HepG2, 4 µM) was 58%.
Work on “CTTCCAAGTGATCATAA (sugars e2 k2 d9 k2 e2, PS)” yielded a target mRNA inhibition (HepG2, 5 µM) of 54%.
“TTAATGTTTATCAGGAT (sugars ekekddddddddeeeee, linkages s1 o2 s9 o2 s2)” showed a target mRNA inhibition (A431, 0.062 µM) of 6%, a target mRNA inhibition (A431, 0.185 µM) of 21% and a target mRNA inhibition (A431, 0.556 µM) of 44%. For the same sequence, the target mRNA inhibition (A431, 1.667 µM) was 76%, the target mRNA inhibition (A431, 5 µM) was 68% and the target mRNA inhibition (A431, 15 µM) was 77%. It also gave a target mRNA inhibition (SH-SY5Y, 0.062 µM) of 0%, a target mRNA inhibition (SH-SY5Y, 0.185 µM) of 0% and a target mRNA inhibition (SH-SY5Y, 0.556 µM) of 34%. For the same sequence, the target mRNA inhibition (SH-SY5Y, 1.667 µM) was 61%, the target mRNA inhibition (SH-SY5Y, 5 µM) was 81% and the target mRNA inhibition (SH-SY5Y, 15 µM) was 90%.
For “TAACAGATGAGTTAAGG (sugars e2 k2 d9 k2 e2, PS)”, the target mRNA inhibition (HepG2, 0.1875 µM) was 21%, the target mRNA inhibition (HepG2, 0.75 µM) was 64% and the target mRNA inhibition (HepG2, 3 µM) was 85%. The target mRNA inhibition (HepG2, 4 µM) was 80% and the target mRNA inhibition (HepG2, 12 µM) was 96%.
“CAGGGTTTTTATTCACA (sugars e3 k2 d7 k2 e3, PS)” was tested, and the target mRNA inhibition (HepG2, 3 µM) was 17%.
“TGCCATACAGGGTTTTT (sugars e2 k2 d8 k2 e3, PS)” showed a target mRNA inhibition (HepG2, 5 µM) of 21%.
“TTACAGTGTTTAATGTT (sugars e3 k2 d7 k2 e3, PS)” showed a target mRNA inhibition (HepG2, 3 µM) of 18%.
For “CACATTGCCCAAGTCTCCAA (sugars e5 d10 e5, PS)”, the target mRNA inhibition (HepG2, 5 µM) was 36% and 19%.
“GCGACTACTTTATAGGCCAG (sugars e5 d10 e5, PS)” gave a target mRNA inhibition (HepG2, 4 µM) of 19%.
In the case of “TCCTTTGGCCCACCGTGTTT (sugars e5 d10 e5, PS)”, the target mRNA inhibition (HepG2, 5 µM) is reported as 30% and 23%.
In the case of “CCAAGGGAATGTTTATT (sugars e2 k2 d9 k2 e2, PS)”, the target mRNA inhibition (HepG2, 4 µM) is reported as 52%.
Work on “AATGGTCTCCTGAGAGTGAG (sugars e5 d10 e5, PS)” yielded a target mRNA inhibition (HepG2, 5 µM) of 22%.
“AGTGTTTAATGTTTATC (sugars e3 k2 d7 k2 e3, PS)” was tested, and the target mRNA inhibition (HepG2, 0.1875 µM) was 52%, the target mRNA inhibition (HepG2, 0.75 µM) was 78% and the target mRNA inhibition (HepG2, 3 µM) was 67% and 86%. It also gave a target mRNA inhibition (HepG2, 12 µM) of 85%.
“GATCATAAATCAGTTTC (sugars e2 k2 d9 k2 e2, PS)” gave a target mRNA inhibition (HepG2, 5 µM) of 38%.
In the case of “AAATCAGTTTCTCACTACAG (sugars e5 d10 e5, PS)”, the target mRNA inhibition (HepG2, 5 µM) is reported as 0%.
